Results reported in patent US5759768A, “Assays for factors affecting circularization of DNA, assays for factors affecting DNA integration, factors, and uses thereof” (priority 1995, dated 1998).
Where two headings read alike, the source gives them in different places.

Assays:
Assay type in all cases: biochemical, HIV-1
[1] = system: linear viral DNA (circularization)
Method: (§1) The chronically HIV-1 infected Molt IIIB human T cell line (HTLV IIIB virus strain) was the source of virus for cell-free infections. This human T cell line constitutively produces a low level of the HTLV-111B strain of HIV-1. Culture supernatant containing a high concentration of virus was prepared by incubating 300×10^6 Molt IIIB cells in 50 ml fresh RPMI 1640 medium containing 20% fetal calf serum and 10 ng of phorbol 12-myristate 13-acetate per ml for 20-24 hours. […] Cytoplasmic extracts (3 ml) were prepared 4-4.5 hours post-infection, by a modification of the procedure of Brown et al., Cell 49: 342-356 (1987).
(§2) At specified times after infection, cells were washed twice with buffer K (20 mM Hepes, pH 7.4, 150 mM KCl, 5 mM MgCl2, 1 mM dithiothreitol, […]) and then lysed at a concentration of 33×10^6 cells per ml in the same buffer containing 0.025% digitonin or 0.025% Triton X-100. Cells were extracted for 10 minutes at room temperature, and the lysate was centrifuged at 1000×g for 3 minutes, and is referred to as "cytoplasmic extract". Cytoplasmic extract was the source of viral DNA for analyses in the assays described below. The pellet from the initial low-speed centrifugation contained cell debris and intact nuclei and is called the "nuclear pellet". Cell extracts from uninfected SupT1 cells were prepared in the same manner.
Viral DNA present in cytoplasmic extracts was deproteinated by incubation with proteinase K (1 mg/ml)/10 mM EDTA/0.5% SDS for 1 hour at 55° C. Samples were extracted successively with phenol/chloroform [1:1 (vol/vol)] and chloroform. DNA was ethanol-precipitated, washed with 70% ethanol, resuspended in 10 mM Tris.HCI (pH 7.4), and treated with RNase A (20 μpg/ml)for 1 hour at […]. before analysis by agarose gel electrophoresis and Southern blotting.
(§3) DNA samples were layered on 0.8% agarose gels and electrophoresed at 1 V/cm for 15 hour in Tris/acetate/EDTA buffer. After electrophoresis, DNA was blotted by capillary action onto nitrocellulose (0.45 μm, Schleicher & Schuell).
Cell extracts were prepared from cells four to five hours after infection with HIV-1, using the above-described methods to yield fully functional viral preintegration complexes. […] In all cases, a HIV-1 LTR-containing DNA fragment was used as a hybridization probe. Therefore, only LTR-containing DNA fragments are detected. […] Lane 5: Unintegrated viral DNA prepared by Hirt extraction of SupT1 cells infected 24 hours earlier with concentrated HIV-1. […] Viral DNA was purified from extracts incubated with 1 mM ATP for 15 minutes (lanes 1 and 4), with 1 mM ATP for 45 minutes (lanes 3 and 6), or with 1 mM ATPγS for 45 minutes (lanes 2 and 5). Lanes 1-3: uncut viral DNA; lanes 4-6: viral DNA was cut with SalI prior to electrophorosis. Lane 7: linear viral DNA, prepared from untreated extracts was digested with SalI prior to electrophorosis. Lane 8: unintegrated viral DNA prepared by Hirt extraction of infected cells, as described with respect to FIG. 14, digested with SalI prior to electrophoresis. […] Lanes 1-3. Viral DNA prepared from extracts treated with 1 mM ATP for 15 minutes, 30 minutes and 45 minutes, respectively. Lane 4: Viral DNA prepared from extract treated with 1 mM ATPγS for 45 minutes. Lanes 5-7: products of reactions shown in lanes 1-3, respectively, digested with SalI and PstI prior to electrophoresis. Lane 8: SalI, PstI digestion of viral DNA prepared from extract treated with 1 mM ATP for 90 minutes. Lane 9: SalI, PstI digestion of reaction products shown in lane 4. Lane 10: SalI, PstI digestion of unintegrated viral DNA prepared by Hirt extraction of infected cells.

[2] = system: purified linear viral DNA; assay: Circularization of purified linear viral DNA in cytoplasmic extracts of uninfected SupT1 cells; conditions: 1 mM, 37° C., 45 min
Method: Further evidence of a role for host proteins in the formation of the 1-LTR and simple 2-LTR circular forms of viral DNA was obtained by testing the ability of uninfected cell extracts to mediate the circularization of purfied viral DNA. Linear viral DNA was prepared from cytoplasmic extracts of uninfected cells by SDS-proteinase K treatment and phenol extraction. The purfied DNA was added to cytoplasmic extracts prepared form uninfected SupT1 cells, in the presence or absence of added ATP.
Linear viral DNA was purified from cytoplasmic extracts of cells 4 hours post-infection as described above. In FIG. 22, a purified linear viral DNA was added to cytoplasmic extracts from uninfected SupT1 cells and incubated at 37° C. for 45 minutes. The uninfected SupT1 cells used for the preparation of extracts were either untreated (lanes 3-11) or cultured in the presence of 10 ng/ml phorbol 12-myristate 13-acetate for six hours prior to extraction (lane 2). […] Lanes 2-11: reaction products following incubation of purified linear viral DNA in uninfected extracts containing 1 mM ATP (lanes 2 and 3), nothing added (lane 4), 1 mM dATP (lane 5), 1 mM UTP (lane 6), 1 mM CTP (lane 7), 1 mM GTP (lane 8), 1 mM ATPγS (lane 9), or 1 mM ADP (lane 10). Lane 11: uninfected SupT1 cell extract was treated with proteinase K for 10 minutes at 37° C., then linear viral DNA was added and incubation continued for 45 minutes. In FIG. 23, lanes 1, 2, 4 and 5: purified linear viral DNA was incubated with T4 DNA ligase (lane 1), T4 polynucleotide kinase and T4 DNA ligase (lane 2), Klenow fragment of E. coli DNA polymerase I and T4 DNA ligase […], or Klenow fragment, T4 polynucleotide kinase, and T4 DNA ligase (lane 4). Lanes 3 and 6: in vitro circularization reaction products generated in cell extracts, included as size standards. Lane 3: cytoplasmic extracts from infected cells were incubated with […] for 45 minutes; lane 6: purified linear viral DNA was incubated with cytoplasmic extract from uninfected SupT1 cells in the presence of 1 mM ATP for 45 minutes. The possibility that a host DNA ligase was responsible for the formation of the simple 2-LTR circles was examined by testing the ability of phage T4 ligase to catalyze the circularization of linear viral DNA. […] Restriction endonuclease analysis of the reaction products formed in the presence of both Klenow fragment and T4 DNA ligase confirmed the formation of new 2-LTR junctions (not shown). […] This observation is consistent with previous reports that linear viral DNA prepared from cells infected with the murine leukemia virus [Fujiwara and Mizuuchi, Cell, 54:497-504 (1988) and HIV-1 [Pauza, Virology, 179:886-887 (1990)] consists of a mixture of molecules that are either blunt-ended or recessed by two nucleotides at each 3'-terminus. The removal of the two terminal nucleotides is mediated by the viral integrase as a necessary step in the process of integration [Roth et al., Cell 58: 47-54 (1989)]. […] This would explain the requirement of DNA polymerase for the subsequent joining of the ends of viral DNA by DNA ligase.

[3] = system: viral DNA integrated into .phi.X174 target DNA; conditions: for inhibition of integration: 90 min incubation
Method: as §1, §2, §3
In Vitro Integration Reaction
Pst I-linearized (replicative form III) .phi.X174 DNA, relaxed circular (replicative form II) .phi.X174 DNA, and single-stranded M13 DNA were used as targets for the in vitro integration of viral DNA. Target DNA was added to cytoplasmic extracts of intected SupT1 cells to a concentration of 10 μg/ml, and reaction mixtures were incubated at […]. Reactions, were stopped by the addition of SDS and proteinase K.
Cytoplasmic extracts prepared from SupT1 cells 4 hours after infection with HIV-1 were incubated with exogenously added target DNA under integration reaction conditions. Products of the reactions were analyzed by Southern blot hybridization. The time course of integration into linear .phi.X174 DNA target was determined. Target DNA was added to the extract and the reaction was stopped after 0,5,15,30, or 45 minutes of incubation at 37° C. (FIG. 11, lanes a-e, respectively). Purified linear viral DNA was incubated for 1 hour at 37° C. with cytoplasmic extract prepared from uninfected SupT1 cells (lane f). […] Arrows in the Figure indicate the positions of viral DNA products. L, linear viral DNA:I, integration product. Integration was detected by the shift of linear viral DNA on Southern blots from the characteristic 9.7-kilobase (kb) position to a position corresponding to viral DNA plus target DNA.

## Nc1ncnc2c1ncn2[C@@H]1O[C@H](COP(=O)(O)OP(=O)(O)O)[C@@H](O)[C@H]1O [ADP]
[1]; 1 mM, 37° C., 45 min
  circular DNA forms observed: No circular DNA forms were observed

## Nc1ncnc2c1ncn2[C@@H]1O[C@H](COP(=O)(O)O)[C@@H](O)[C@H]1O [AMP]
[1]; 1 mM, 37° C., 45 min
  circular DNA forms observed: No circular DNA forms were observed

## Nc1ccn([C@@H]2O[C@H](COP(=O)(O)OP(=O)(O)OP(=O)(O)O)[C@@H](O)[C@H]2O)c(=O)n1 [CTP, cytosine triphosphate]
[1]
  induction of 1-LTR circular form: induced the formation of only a small amount of the 1-LTR circular form
  induction of 2-LTR circles: induced the formation of 2-LTR circles
[2]
  1-LTR circles from purified linear viral DNA: able to induce the formation of 1-LTR circles
  2-LTR circles from purified linear viral DNA: failed to induce the formation of detectable 2-LTR circles

## Nc1nc2c(ncn2[C@@H]2O[C@H](COP(=O)(O)OP(=O)(O)O)[C@@H](O)[C@H]2O)c(=O)[nH]1 [GDP]
[1]; 1 mM, 37° C., 45 min
  circular DNA forms observed: No circular DNA forms were observed

## Nc1nc2c(ncn2[C@@H]2O[C@H](COP(=O)(O)OP(=O)(O)OP(=O)(O)O)[C@@H](O)[C@H]2O)c(=O)[nH]1 [GTP, guanosine triphosphate]
[1]; 1 mM, 37° C., 45 min
  induction of 1-LTR circular form: induced the formation of only a small amount of the 1-LTR circular form
  induction of 2-LTR circles: induced the formation of 2-LTR circles

## [Cl-].[Na+] [NcCl]
[3]
  Relative activity, % of standard: 100 % of standard

## O=c1ccn([C@@H]2O[C@H](COP(=O)(O)OP(=O)(O)OP(=O)(O)O)[C@@H](O)[C@H]2O)c(=O)[nH]1 [UTP]
[1]; 1 mM, 37° C., 45 min
  induction of 1-LTR circular form: induced the formation of only a small amount of the 1-LTR circular form
  induction of 2-LTR circles: induced the formation of 2-LTR circles
[2]
  1-LTR circles from purified linear viral DNA: able to induce the formation of 1-LTR circles
  2-LTR circles from purified linear viral DNA: failed to induce the formation of detectable 2-LTR circles

## Nc1ncnc2nc[nH]c12 [adenine]
[1]; 1 mM, 37° C., 45 min
  circular DNA forms observed: No circular DNA forms were observed

## Nc1ncnc2c1ncn2[C@@H]1O[C@H](CO)[C@@H](O)[C@H]1O [adenosine]
[1]; 1 mM, 37° C., 45 min
  circular DNA forms observed: No circular DNA forms were observed

## CC[C@@]1(O)C(=O)OCc2c1cc1n(c2=O)Cc2cc3ccccc3nc2-1 [camptothecin]
[3]; 5 μM
  inhibition of integration: about 50%
[3]; 50 μM
  inhibition of integration: about 100%

## Nc1ncnc2c1ncn2[C@@H]1O[C@H](CO)C[C@H]1O [cordycepin, 3'-deoxyadenosine]
[1]; 1 mM, 37° C., 45 min
  circular DNA forms observed: No circular DNA forms were observed

## Nc1cc[nH]c(=O)n1 [cytosine]
[1]; 1 mM, 37° C., 45 min
  circular DNA forms observed: No circular DNA forms were observed

## Nc1ncnc2c1ncn2[C@H]1C[C@H](O)[C@@H](COP(=O)(O)OP(=O)(O)OP(=O)(O)O)O1 [dATP, deoxyadenosine triphosphate]
[1]; 1 mM, 37° C., 45 min
  induction of both circular forms: induced both circular forms with an efficiency comparable to ATP
[2]
  1-LTR circles from purified linear viral DNA: able to induce the formation of 1-LTR circles
  2-LTR circles from purified linear viral DNA: failed to induce the formation of detectable 2-LTR circles

## Nc1nc2c(ncn2[C@H]2CC[C@@H](COP(=O)(O)OP(=O)(O)OP(=O)(O)O)O2)c(=O)[nH]1 [dd-GTP]
[1]; 1 mM, 37° C., 45 min
  induction of 1-LTR circular form: unable to induce detectable amounts of the 1-LTR circular forms
  induction of 2-LTR circles: induced the formation of 2-LTR circles

## Nc1ncnc2c1ncn2[C@H]1CC[C@@H](COP(=O)(O)OP(=O)(O)OP(=O)(O)O)O1 [ddATP, dideoxyadenesine triphosphate]
[1]; 1 mM, 37° C., 45 min
  induction of 1-LTR circular form: unable to induce detectable amounts of the 1-LTR circular forms
  induction of 2-LTR circles: induced the formation of 2-LTR circles

## Nc1ccn([C@H]2CC[C@@H](COP(=O)(O)OP(=O)(O)OP(=O)(O)O)O2)c(=O)n1 [ddCTP]
[1]; 1 mM, 37° C., 45 min
  induction of 1-LTR circular form: unable to induce detectable amounts of the 1-LTR circular forms
  induction of 2-LTR circles: induced the formation of 2-LTR circles

## Cc1cn([C@H]2CC[C@@H](COP(=O)(O)OP(=O)(O)OP(=O)(O)O)O2)c(=O)[nH]c1=O [ddTTP]
[1]; 1 mM, 37° C., 45 min
  induction of 1-LTR circular form: unable to induce detectable amounts of the 1-LTR circular forms
  induction of 2-LTR circles: induced the formation of 2-LTR circles

## Nc1nc2nc[nH]c2c(=O)[nH]1 [guanine]
[1]; 1 mM, 37° C., 45 min
  circular DNA forms observed: No circular DNA forms were observed

## Nc1nc2c(ncn2[C@@H]2O[C@H](CO)[C@@H](O)[C@H]2O)c(=O)[nH]1 [guanosine]
[1]; 1 mM, 37° C., 45 min
  circular DNA forms observed: No circular DNA forms were observed

## O=c1cc[nH]c(=O)[nH]1 [uracil]
[1]; 1 mM, 37° C., 45 min
  circular DNA forms observed: No circular DNA forms were observed

## alkaline phosphatase
[3]; pretreatment of linear target DNA
  effect on the in vitro integration reaction: no effect on the in vitro integration reaction
